Test results: patent US20240381872A1, “SUBSTITUTED 2,3-DIHYDRO[1,3]THIAZOLO[4,5-B]PYRIDINES, SALTS THEREOF AND THEIR USE AS HERBICIDALLY ACTIVE SUBSTANCES” (BAYER AKTIENGESELLSCHAFT, priority 2021, published 2024)

Assays:
Format in all cases: in vivo
Brassica napus (BRSNW) [1] = assay: Post-emergence effects on crop plants, section F (Table F5); settings: application rate 80 g/ha
From the text: (§1) Seeds of mono- and dicotyledonous weed plants and crop plants were sown, in plastic or organic planting pots, in sandy loam, covered with soil and grown in a greenhouse under controlled growth conditions. 2 to 3 weeks after sowing, the test plants were sprayed in the single-leaf stage. The compounds according to the invention, formulated in form of wettable powders (WP) or as emulsifiable concentrates (EC), were sprayed onto the green plant parts as aqueous suspension or emulsion, with the addition of 0.5% of an additive, at an application rate of 600 l of water/ha (converted). The test plants were placed in the greenhouse for ca. 3 weeks under optimum growth conditions, and then the effect of the preparations was assessed visually in comparison with untreated controls (herbicidal effect in percent (%): 100% effect=plants have died off, 0% effect=as control plants). Tables F1 to F4 below show the effects of selected compounds of the general formula (I) according to Table 1 on various crop plants and an application rate corresponding to 320 g/ha or below obtained by the experimental procedure mentioned above.

[2] = tested on: Alopecurus myosuroides (ALOMY); assay: Herbicidal post-emergence action, section E (Table E2); settings: Alopecurus myosuroides, post-emergence, 504 h; application rate 320 g/ha; assessed visually after ca. 3 weeks; read-out: post-emergence activity against ALOMY in %
From the text: as §1, with “plants).” for “plants). Tables F1 to F4 below show the effects of selected compounds of the general formula (I) according to Table 1 on various crop plants and an application rate corresponding to 320 g/ha or below obtained by the experimental procedure mentioned above.”

Oryza sativa (ORYZA) [3] = assay: Pre-emergence effects on crop plants, section D (Table D3); settings: visual grading after ca. 3 weeks
From the text: (§2) Seeds of mono- and dicotyledonous weed plants and crop plants were sown, in plastic or organic planting pots, in sandy loam and covered with soil. The compounds according to the invention, formulated in the form of wettable powders (WP) or as emulsifiable concentrates (EC), were applied to the surface of the covering soil as aqueous suspension or emulsion, with the addition of 0.5% of an additive, at an application rate of 600 l of water/ha (converted).
(§3) Following treatment, the pots were placed in a greenhouse and kept under optimum growth conditions for the test plants. The visual grading of the damage to the test plants was carried out after ca. 3 weeks in comparison to untreated controls (herbicidal effect in percent (%): 100% effect=plants have died off, 0% effect=as control plants).
(§4) Tables D1 to D5 below show the effects of various compounds of the general formula (I) according to Table 1 on various crop plants and an application rate corresponding to 320 g/ha or below obtained by the experimental procedure mentioned above in Biological Examples, Section C.

[4] = tested on: Triticum aestivum (TRZAS); assay: Post-emergence effects on crop plants, section F (Table F2); settings: application rate 320 g/ha
Procedure, shortened: (§5)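 Crop seeds were sown in sandy loam in pots and greenhouse-grown; at the single-leaf stage, 2 to 3 weeks after sowing, plants were sprayed with WP or EC formulations plus 0.5% additive at 600 l water/ha, 320 g/ha or below. Damage was scored visually about 3 weeks later versus untreated controls (0–100%).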

[5] = tested on: Polygonum convolvulus (POLCO); assay: Herbicidal pre-emergence action, section C (Table C7); settings: Fallopia convolvulus, pre-emergence, 504 h; application rate 320 g/ha; visual grading after ca. 3 weeks; read-out: pre-emergence activity against POLCO in %
From the text: (§6) Seeds of mono- and dicotyledonous weed plants and crop plants were sown, in plastic or organic planting pots, in sandy loam and covered with soil. The compounds according to the invention, formulated in the form of wettable powders (WP) or as emulsifiable concentrates (EC), were applied to the surface of the covering soil as aqueous suspension or emulsion, with the addition of 0.5% of an additive, at an application rate of 600 l of water/ha (converted). Following treatment, the pots were placed in a greenhouse and kept under optimum growth conditions for the test plants. The visual grading of the damage to the test plants was carried out after ca. 3 weeks in comparison to untreated controls (herbicidal effect in percent (%): 100% effect=plants have died off, 0% effect=as control plants).

Lolium rigidum (LOLRI) [6] = assay: Herbicidal pre-emergence action, section C (Table C5); settings: Lolium rigidum, pre-emergence, 504 h; application rate 320 g/ha; visual grading after ca. 3 weeks; read-out: pre-emergence activity against LOLRI in %
From the text: as §6

Zea mays (ZEAMX) [7] = assay: Post-emergence effects on crop plants, section F (Table F1); settings: application rate 320 g/ha
Procedure, shortened: as §5

Setaria viridis (SETVI) [8] = assay: Herbicidal pre-emergence action, section C (Table C8); settings: application rate 320 g/ha, visual grading after ca. 3 weeks
From the text: as §6

[9] = tested on: Echinochloa crus-galli (ECHCG); assay: Herbicidal pre-emergence action, section C (Table C3); settings: application rate 320 g/ha, visual grading after ca. 3 weeks vs untreated controls
From the text: as §6

Brassica napus (BRSNW) [10] = assay: Pre-emergence effects on crop plants, section D (Table D5); settings: application rate 80 g/ha; visual grading after ca. 3 weeks
From the text: as §2, §3, §4

[11] = tested on: Polygonum convolvulus (POLCO); assay: Herbicidal post-emergence action, section E (Table E7); settings: Fallopia convolvulus, 504 h, application rate 320 g/ha, visual assessment ca. 3 weeks after spraying, read-out: post-emergence activity against POLCO in %
From the text: as §1, with “plants).” for “plants). Tables F1 to F4 below show the effects of selected compounds of the general formula (I) according to Table 1 on various crop plants and an application rate corresponding to 320 g/ha or below obtained by the experimental procedure mentioned above.”

Glycine max (GLXMA) [12] = assay: Post-emergence effects on crop plants, section F (Table F4)
Procedure, shortened: as §5

[13] = tested on: Triticum aestivum (TRZAS); assay: Pre-emergence effects on crop plants, section D (Table D2); settings: visual grading after ca. 3 weeks
Procedure, shortened: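 After sowing in sandy loam and covering with soil, pots receive compound applied to the soil surface at rates up to 320 g/ha in 600 l water/ha containing 0.5% additive. Plants then grow under optimum greenhouse conditions. Percent herbicidal effect is rated visually at roughly 3 weeks against untreated pots.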

[14] = tested on: Alopecurus myosuroides (ALOMY); assay: Herbicidal pre-emergence action, section C (Table C2); settings: Alopecurus myosuroides, pre-emergence, 504 h; application rate 320 g/ha; visual grading after ca. 3 weeks vs untreated controls; read-out: pre-emergence activity against ALOMY in %
From the text: as §6

Zea mays (ZEAMX) [15] = assay: Pre-emergence effects on crop plants, section D (Table D1); settings: visual grading after ca. 3 weeks
From the text: as §2, §3, §4

Oryza sativa (ORYZA) [16] = assay: Post-emergence effects on crop plants, section F (Table F3)
From the text: as §1

Glycine max (GLXMA) [17] = assay: Pre-emergence effects on crop plants, section D (Table D4); settings: application rate 320 g/ha; visual grading after ca. 3 weeks
From the text: as §2, §3, §4

Veronica persica (VERPE) = assay: Herbicidal post-emergence action, section E (Table E9); settings: Veronica persica, 504 h, application rate 320 g/ha, visual assessment ca. 3 weeks after spraying, read-out: post-emergence activity against VERPE in %
From the text: as §1, with “plants).” for “plants). Tables F1 to F4 below show the effects of selected compounds of the general formula (I) according to Table 1 on various crop plants and an application rate corresponding to 320 g/ha or below obtained by the experimental procedure mentioned above.”

[18] = tested on: Digitaria sanguinalis (DIGSA); assay: Herbicidal pre-emergence action, section A (Table A12); settings: application rate 1280 g/ha
Procedure, shortened: (§7)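 WP/EC formulations, aqueous, 0.5% additive, 600 l/ha → soil surface over seeds in sandy loam → greenhouse, optimum growth → visual % damage vs untreated at ca. 3 weeks.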

[19] = tested on: Amaranthus retroflexus (AMARE); assay: Herbicidal pre-emergence action, section A (Table A11); settings: application rate 1280 g/ha
Procedure, shortened: as §7

Setaria viridis (SETVI) [20] = assay: Herbicidal pre-emergence action, section A (Table A8); settings: application rate 320 g/ha
Procedure, shortened: as §7

Kochia scoparia (KCHSC) [21] = assay: Herbicidal pre-emergence action, section A (Table A4); settings: application rate 1280 g/ha; visual grading after ca. 3 weeks vs untreated controls
Procedure, shortened: as §7

[22] = tested on: Digitaria sanguinalis (DIGSA); assay: Herbicidal pre-emergence action, section C (Table C12); settings: application rate 320 g/ha; visual grading after ca. 3 weeks
From the text: as §6

Stellaria media (STEME) = assay: Herbicidal pre-emergence action, section A (Table A9); settings: application rate 1280 g/ha
Procedure, shortened: as §7

Poa annua (POAAN) = assay: Herbicidal pre-emergence action, section A (Table A7); settings: application rate 320 g/ha; visual grading after ca. 3 weeks vs untreated controls
Procedure, shortened: as §7

Lolium rigidum (LOLRI) [23] = assay: Herbicidal pre-emergence action, section A (Table A5); settings: application rate 1280 g/ha; visual grading after ca. 3 weeks vs untreated controls
Procedure, shortened: as §7

Kochia scoparia (KCHSC) [24] = assay: Herbicidal post-emergence action, section B (Table B4); settings: application rate 1280 g/ha; visual rating about 3 weeks after treatment vs untreated controls
Procedure, shortened: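 Post-emergence greenhouse test. One-leaf stage; WP or EC plus 0.5% additive; 600 liters per hectare water volume; visual % rating at ~3 weeks relative to untreated plants.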

[25] = tested on: Amaranthus retroflexus (AMARE); assay: Herbicidal pre-emergence action, section C (Table C11); settings: application rate 80 g/ha; visual grading after ca. 3 weeks
From the text: as §6

`Cc1cc2c(nc1-c1ccccc1F)N(C(=O)C1CC1)CS2` [Example I-018, cyclopropyl[5-(2-fluorophenyl)-6-methyl[1,3]thiazolo[4,5-b]pyridin-3(2H)-yl]methanone] was tested, and the crop plant damage (phytotoxicity) in % at 80 g/ha (Brassica napus (BRSNW) [1]; Brassica napus, 504 h, read-out: post-emergence activity against BRSNW in %) was 10%, the pest or weed control at 320 g/ha [2] was 90% and the “pre-emergence activity against ORYZA in % (crop plant damage)” value (Oryza sativa (ORYZA) [3]; application rate 80 g/ha) was 10%. The percent crop plant damage (wheat, post-emergence) at 320 g/ha ([4]; Triticum aestivum, 504 h, read-out: post-emergence activity against TRZAS in %) was 10%, the pest or weed control at 320 g/ha [5] was 90% and the pest or weed control at 320 g/ha (Lolium rigidum (LOLRI) [6]) was 100%. The percent crop plant damage (phytotoxicity) on Zea mays, post-emergence at 320 g/ha (Zea mays (ZEAMX) [7]; Zea mays, 504 h, read-out: post-emergence activity against ZEAMX in %) was 20%, the pest or weed control at 320 g/ha (Setaria viridis (SETVI) [8]; Setaria viridis, pre-emergence, 504 h, read-out: pre-emergence activity against SETVI in %) was 100% and the pest or weed control at 320 g/ha ([9]; Echinochloa crus-galli, pre-emergence, 504 h, read-out: pre-emergence activity against ECHCG in %) was 100%. For the same compound, the “pre-emergence activity against BRSNW in % (crop plant damage)” value (Brassica napus (BRSNW) [10]) was 10%, the pest or weed control at 320 g/ha [11] was 80% and the percent crop plant damage at 320 g/ha (Glycine max (GLXMA) [12]; Glycine max, 504 h, application rate 320 g/ha, read-out: post-emergence activity against GLXMA in %) was 0%. The “pre-emergence activity against TRZAS in % (crop plant damage)” value ([13]; application rate 80 g/ha) was 10%, the pest or weed control at 320 g/ha [14] was 100% and the “pre-emergence activity against ZEAMX in % (crop plant damage)” value (Zea mays (ZEAMX) [15]; application rate 80 g/ha) was 20%. The percent crop plant damage at 80 g/ha (Oryza sativa (ORYZA) [16]; Oryza sativa, 504 h, application rate 80 g/ha, read-out: post-emergence activity against ORYZA in %) was 0%, the “pre-emergence activity against GLXMA in % (crop plant damage)” value (Glycine max (GLXMA) [17]) was 10% and the pest or weed control at 320 g/ha (Veronica persica (VERPE)) was 90%.
In the case of `COc1ccccc1-c1nc2c(cc1Br)SCN2B(N)N` [Example I-087], the “post-emergence activity against BRSNW in %” value (Brassica napus (BRSNW) [1]; crop plant damage) is reported as 0%, the “pre-emergence activity against DIGSA in %” value [18] is reported as 100% and the “pre-emergence activity against AMARE in %” value [19] is reported as 90%. For the same compound, the “pre-emergence activity against SETVI in %” value (Setaria viridis (SETVI) [20]) was 100%, the “pre-emergence activity against ORYZA in % (crop plant damage)” value (Oryza sativa (ORYZA) [3]; application rate 320 g/ha) was 20% and the “post-emergence activity against TRZAS in %” value ([4]; crop plant damage) was 0%. The “pre-emergence activity against KCHSC in %” value (Kochia scoparia (KCHSC) [21]) was 90%, the “pre-emergence activity against DIGSA in %” value [22] was 90% and the “pre-emergence activity against STEME in %” value (Stellaria media (STEME)) was 90%. For the same compound, the “post-emergence activity against ZEAMX in %” value (Zea mays (ZEAMX) [7]; crop plant damage) was 0%, the “pre-emergence activity against SETVI in %” value (Setaria viridis (SETVI) [8]) was 100% and the “pre-emergence activity against ECHCG in %” value [9] was 90%. The “pre-emergence activity against BRSNW in % (crop plant damage)” value (Brassica napus (BRSNW) [10]) was 20%, the “pre-emergence activity against POAAN in %” value (Poa annua (POAAN)) was 100% and the “post-emergence activity against GLXMA in %” value (Glycine max (GLXMA) [12]; crop plant damage, application rate 80 g/ha) was 0%. For the same compound, the “pre-emergence activity against TRZAS in % (crop plant damage)” value ([13]; application rate 320 g/ha) was 10%, the “pre-emergence activity against LOLRI in %” value (Lolium rigidum (LOLRI) [23]) was 100% and the “pre-emergence activity against ZEAMX in % (crop plant damage)” value (Zea mays (ZEAMX) [15]; application rate 320 g/ha) was 10%. For the same compound, the “post-emergence activity against ORYZA in %” value (Oryza sativa (ORYZA) [16]; crop plant damage, application rate 320 g/ha) was 0%, the “pre-emergence activity against GLXMA in % (crop plant damage)” value (Glycine max (GLXMA) [17]) was 20% and the “post-emergence activity against KCHSC in %” value (Kochia scoparia (KCHSC) [24]) was 90%. The “pre-emergence activity against AMARE in %” value [25] was 90%.
